Test results reported in patent US20100144779A1, “Marine Alkalod Makaluvamines and Derivatives Thereof” (THE UAB RESEARCH FOUNDATION, priority 2007, published 2010).

Assays:
Assay in all cases: NCI60 cell line screen (SRB)
Format in all cases: cell-based, human
[1] = test system: SK-MEL-2; conditions: SK-MEL-2, Melanoma, 48 h
Method: (§1) This panel implements the NCI60 cell line screen, including leukemia, non-small cell lung cancer, colon cancer, central nervous system cancer, melanoma, ovarian cancer, renal cancer, prostate cancer and breast cancer. The cell lines tested are specified in Table 3.
(§2) Generally, the human tumor cell lines of the cancer screening panel are grown in RPMI 1640 medium containing 5% fetal bovine serum and 2 mM L-glutamine. For a typical screening experiment, cells are inoculated into 96 well microtiter plates in 100 μL at plating densities ranging from 5,000 to 40,000 cells/well depending on the doubling time of individual cell lines. After cell inoculation, the microtiter plates are incubated at 37° C., 5% CO2, 95% air and 100% relative humidity for 24 h prior to addition of experimental drugs. After 24 h, two plates of each cell line are fixed in situ with TCA, to represent a measurement of the cell population for each cell line at the time of drug addition (Tz). Experimental drugs are solubilized in dimethyl sulfoxide at 400-fold the desired final maximum test concentration and stored frozen prior to use. At the time of drug addition, an aliquot of frozen concentrate is thawed and diluted to twice the desired final maximum test concentration with complete medium containing 50 μg/ml gentamicin. Additional four, 10-fold or ½ log serial dilutions are made to provide a total of five drug concentrations plus control. Aliquots of 100 μl of these different drug dilutions are added to the appropriate microtiter wells already containing 100 μl of medium, resulting in the required final drug concentrations.
(§3) Following drug addition, the plates are incubated for an additional 48 h at 37° C., 5% CO2, 95% air, and 100% relative humidity. For adherent cells, the assay is terminated by the addition of cold TCA. Cells are fixed in situ by the gentle addition of 50 μl of cold 50% (w/v) TCA (final concentration, 10% TCA) and incubated for 60 minutes at 4° C. The supernatant is discarded, and the plates are washed five times with tap water and air dried. Sulforhodamine B (SRB) solution (100 μl) at 0.4% (w/v) in 1% acetic acid is added to each well, and plates are incubated for 10 minutes at room temperature. After staining, unbound dye is removed by washing five times with 1% acetic acid and the plates are air dried. Bound stain is subsequently solubilized with 10 mM trizma base, and the absorbance is read on an automated plate reader at a wavelength of 515 nm. For suspension cells, the methodology is the same except that the assay is terminated by fixing settled cells at the bottom of the wells by gently adding 50 μl of 80% TCA (final concentration, 16% TCA). Using the seven absorbance measurements (time zero, Tz, control growth, (control), and test growth in the presence of drug at the five concentration levels (Ti)), the percentage growth is calculated at each of the drug concentrations levels. Percentage growth inhibition is calculated as:
(§4) [(Ti−Tz)/(C−Tz)]×100 for concentrations for which Ti>/=Tz
(§5) [(Ti−Tz)/Tz]×100 for concentrations for which Ti<Tz.

[2] = test system: T-47D; conditions: Breast Cancer, 48 h
Method: as §1, §2, §3, §4, §5

[3] = test system: OVCAR3; conditions: OVCAR3, Ovarian Cancer, 48 h
Method: as §1, §2, §3, §4, §5

[4] = test system: SW-620; conditions: SW-620, Colon Cancer, 48 h
Method: as §1, §2, §3, §4, §5

[5] = test system: SR; conditions: Leukemia, 48 h
Method: as §1, §2, §3, §4, §5

[6] = test system: RXF 393; conditions: RXF 393, Renal Cancer, 48 h
Method: as §1, §2, §3, §4, §5

[7] = test system: NCI-H460; conditions: NCI-H460, Non-Small Cell Lung Cancer, 48 h
Method: as §1, §2, §3, §4, §5

[8] = test system: COLO 205; conditions: COLO 205, Colon Cancer, 48 h
Method: as §1, §2, §3, §4, §5

[9] = test system: A498; conditions: A498, Renal Cancer, 48 h
Method: as §1, §2, §3, §4, §5

[10] = test system: NCI-H23; conditions: NCI-H23, Non-Small Cell Lung Cancer, 48 h
Method: as §1, §2, §3, §4, §5

[11] = test system: OVCAR8; conditions: OVCAR8, Ovarian Cancer, 48 h
Method: as §1, §2, §3, §4, §5

[12] = test system: NCI-H552; conditions: NCI-H552, Non-Small Cell Lung Cancer, 48 h
Method: as §1, §2, §3, §4, §5

[13] = test system: CAKI-1; conditions: CAKI-1, Renal Cancer, 48 h
Method: as §1, §2, §3, §4, §5

[14] = test system: SK-OV-3; conditions: SK-OV-3, Ovarian Cancer, 48 h
Method: as §1, §2, §3, §4, §5

[15] = test system: U251; conditions: U251, CNS Cancer, 48 h
Method: as §1, §2, §3, §4, §5

[16] = test system: MOLT-4; conditions: MOLT-4, Leukemia, 48 h
Method: as §1, §2, §3, §4, §5

[17] = test system: UACC-257; conditions: UACC-257, Melanoma, 48 h
Method: as §1, §2, §3, §4, §5

Structure (SMILES) | GI50 [1] [µM] | GI50 [2] [µM] | GI50 [3] [µM] | GI50 [4] [µM] | GI50 ([1]; Homo sapiens) [µM] | GI50 ([2]; Homo sapiens, T47D) [µM] | GI50 ([3]; Homo sapiens, OVCAR-3) [µM] | GI50 ([4]; Homo sapiens) [µM] | GI50 ([5]; Homo sapiens) [µM] | GI50 ([7]; Homo sapiens) [µM] | GI50 ([8]; Homo sapiens) [µM] | GI50 ([9]; Homo sapiens) [µM] | GI50 ([10]; Homo sapiens) [µM] | GI50 ([11]; Homo sapiens, OVCAR-8) [µM] | GI50 ([12]; Homo sapiens) [µM] | GI50 ([13]; Homo sapiens) [µM] | GI50 ([14]; Homo sapiens) [µM] | GI50 ([15]; Homo sapiens, U-251) [µM] | GI50 ([16]; Homo sapiens) [µM] | GI50 ([17]; Homo sapiens) [µM] | other results
O=C1C(NCc2ccccc2)=CC2=NCCc3c[nH]c1c32 [Compound 4c] | 5.2 | 0.523 | 2.58 | 1.07 |  |  |  |  |  |  |  |  |  |  |  |  |  |  |  |  | GI50 [5]: 1.75 µM; GI50 [6]: 2.09 µM; GI50 [7]: 1.51 µM; GI50 [8]: 0.378 µM; GI50 [9]: 16.5 µM; GI50 [10]: 1.47 µM; GI50 [11]: 2.08 µM; GI50 [12]: 1.69 µM; GI50 [13]: 0.298 µM; GI50 [14]: 7.01 µM; GI50 [15]: 2.66 µM; GI50 [16]: 0.315 µM; GI50 [17]: 0.315 µM
O=C(O)C(F)(F)F.O=C1C(NCCc2ccc3c(c2)OCO3)=CC2=NCCc3c[nH]c1c32 [Compound 6] |  |  |  |  | 5.82 | 2.97 | 2.02 | 3.44 | 2.5 | 1.01 | 1.02 | 6.03 | 1.69 | 1.62 | 2.62 | 1.77 | 9.7 | 3.05 | 2.02 | 2.97 | 
COc1ccc(CCNC2=CC3=NCCc4c[nH]c(c43)C2=O)cc1OC.O=C(O)C(F)(F)F [Compound 20] |  |  |  |  | 0.73 | 2.49 | 1.61 | 3.09 | 5.69 | 1.42 | 1.39 | 7.24 | 2 | 1.79 | 2.24 | 2.67 | 14.6 | 3.44 | 4.95 | 3.07 | 
CNC1=CC2=NCCc3c[nH]c(c32)C1=O [Compound 4a] | 1.67 | 3.5 | 6.3 | 3.1 |  |  |  |  |  |  |  |  |  |  |  |  |  |  |  |  | GI50 [5]: 3.12 µM; GI50 [6]: 4.22 µM; GI50 [7]: 2.16 µM; GI50 [8]: 1.75 µM; GI50 [9]: 20.7 µM; GI50 [10]: 2.46 µM; GI50 [11]: 3.19 µM; GI50 [12]: 4.13 µM; GI50 [13]: 1.95 µM; GI50 [14]: 18.7 µM; GI50 [15]: 4.2 µM; GI50 [16]: 1.97 µM; GI50 [17]: 2 µM
O=C(O)C(F)(F)F.O=C1C(NCc2ccc(F)cc2)=CC2=NCCc3c[nH]c1c32 [Compound 28] |  |  |  |  | 4.53 | 0.633 | 2.23 | 1.82 | 1.21 | 0.816 | 0.365 | 3.11 | 0.521 | 1.97 | 2 | 0.329 | 3.15 | 1.99 | 0.793 | 0.189 | GI50 ([6]; Homo sapiens): ≤ 0.01 µM
